In PMC11237035, “Glutathione determines chronic myeloid leukemia vulnerability to an inhibitor of CMPK and TMPK” (Communications Biology, 2024):
Several values for one entry are separate records, joined by “and”; a condition that tells them apart may be missing. Identical values can stand only once. Like-named read-outs stand apart in the source and are kept apart here.

Tests used:
untransformed 32D cells [1] = test: CCK-8 cell viability assay, untransformed 32D cells; format: cell-based, mouse; details: for viability (0 = 100): Untransformed, single replicates
Description: After 72 h, viability assays were performed.
3 independent experiments. Asterisks denote ***p<0.001 from non-paired two-tailed

untransformed 32D cells [2] = test: Western blot of tyrosine phosphorylation, untransformed 32D cells; format: cell-based, mouse; details: untransformed 32D cells, JMF4073 at indicated concentrations, Western blot
T315I-Bcr-Abl-32D cells = test: CCK-8 cell viability assay, T315I-Bcr-Abl-32D cells; format: cell-based, mouse; details: for cell viability (% of NT, 0 JMF4073), Figure 5e / cell viability (% of 0 JMF4073), Figure 5b: T315I; for cell viability (% of NT, 0 JMF4073), Figure 5e: NT (no BSO)
KOPM28 cells = test: CCK-8 cell viability assay, KOPM28 cells; details: for cell viability (Figure 7g): NT, NT 0 μM = 100, per replicate
Description: After 3 days, cells were analyzed by viability assays.
Cells were seeded at the density of 1 × 10^3 cells/well in 96-well microplate. After 3 days, cell viability was determined using the CCK-8 cell viability. The viability was measured by using Tecan Spark 10 microplate reader at 450 nm according to the manufacturer’s instructions.

`CC(C)(C)OC(=O)N1CCN(C(=O)Cn2sc3ccc(F)cc3c2=O)CC1` [JMF4073, Tert-butyl 4-(2-(5-fluoro-3-oxobenzo[d]isothiazol-2(3H)-yl)acetyl) piperazine-1-carboxylate] was tested, and the “growth of cells, BSO in combination with JMF4073” value (untransformed 32D cells [1]; 32D myeloid progenitor cells) was “severely suppressed the growth”, the GI50 (untransformed 32D cells [1]; Mus musculus, untransformed 32D cells, viability) was 4200 nM and the “viability (0 = 100)” value (untransformed 32D cells [1]; JMF4073 1 mM (so in the source)) was 80.74 and 95.63 and 110. For the same compound, the “viability (0 = 100)” value (untransformed 32D cells [1]; JMF4073 2 mM (so in the source)) was 67.24 and 95.4 and 71, the “viability (0 = 100)” value (untransformed 32D cells [1]; JMF4073 5 mM (so in the source)) was 26.41 and 55.58 and 32 and the “levels of overall tyrosine phosphorylation” value (untransformed 32D cells [2]) was “unaffected”. For the same compound, the viability at 1000 µM (T315I-Bcr-Abl-32D cells; Mus musculus, T315I-Bcr-Abl, JMF4073 1 mM (so in the source), single replicates, read-out: viability (0 = 100)) was 69%, the viability at 500 µM (T315I-Bcr-Abl-32D cells; Mus musculus, T315I-Bcr-Abl, NT (no UK-5099), JMF4073 0.5 mM as printed, replicates, read-out: Figure 6c, viability relative to NT (=100)) was 80.7% and the viability at 1250 µM (T315I-Bcr-Abl-32D cells; Mus musculus, T315I-Bcr-Abl, NT (no UK-5099), JMF4073 1.25 mM as printed, replicates, read-out: Figure 6c, viability relative to NT (=100)) was 43%. It also gave a viability at 500 µM (T315I-Bcr-Abl-32D cells; Mus musculus, read-out: cell viability (% of 0 JMF4073), Figure 5b, T315I, shLacZ, JMF4073 0.5 mM (so in the source), single replicates) of 78.6%, a viability at 2500 µM (T315I-Bcr-Abl-32D cells; Mus musculus, read-out: cell viability (% of 0 JMF4073), Figure 5b, T315I, shLacZ, JMF4073 2.5 mM (so in the source), single replicates) of 15.5% and a viability at 500 µM (T315I-Bcr-Abl-32D cells; Mus musculus, read-out: cell viability (% of 0 JMF4073), Figure 5b, T315I, shSHMT2, JMF4073 0.5 mM (so in the source), single replicates) of 71.4%. The viability at 1250 µM (T315I-Bcr-Abl-32D cells; Mus musculus, read-out: cell viability (% of 0 JMF4073), Figure 5b, T315I, shSHMT2, JMF4073 1.25 mM (so in the source), single replicates) was 52.1%, the viability at 2500 µM (T315I-Bcr-Abl-32D cells; Mus musculus, read-out: cell viability (% of 0 JMF4073), Figure 5b, T315I, shSHMT2, JMF4073 2.5 mM (so in the source), single replicates) was 14.5% and the viability at 500 µM (T315I-Bcr-Abl-32D cells; Mus musculus, read-out: cell viability (% of NT, 0 JMF4073), Figure 5e, T315I, NT (no BSO), JMF4073 0.5 mM (so in the source), single replicates) was 88%. The viability at 1250 µM (T315I-Bcr-Abl-32D cells; Mus musculus, read-out: cell viability (% of NT, 0 JMF4073), Figure 5e, T315I, NT (no BSO), JMF4073 1.25 mM (so in the source), single replicates) was 64%, the GI50 (T315I-Bcr-Abl-32D cells; Mus musculus, T315I-Bcr-Abl-32D cells, viability) was 1500 nM and the “cell viability (% of NT, 0 JMF4073), Figure 5e” value (T315I-Bcr-Abl-32D cells; JMF4073 0.5 mM (so in the source), single replicates) was 86.2452 and 88.0302. The “cell viability (% of NT, 0 JMF4073), Figure 5e” value (T315I-Bcr-Abl-32D cells; JMF4073 1.25 mM (so in the source), single replicates) was 67.023 and 70.4858, the “cell viability (% of NT, 0 JMF4073), Figure 5e” value (T315I-Bcr-Abl-32D cells; JMF4073 2.5 mM (so in the source), single replicates) was 17 and 12.279 and 45.0063 and the “cell viability (% of 0 JMF4073), Figure 5b” value (T315I-Bcr-Abl-32D cells; shLacZ, JMF4073 0.5 mM (so in the source), single replicates) was 80.777. For the same compound, the “cell viability (% of 0 JMF4073), Figure 5b” value (T315I-Bcr-Abl-32D cells; shLacZ, JMF4073 1.25 mM (so in the source), single replicates) was 68.6184 and 53.2629, the “cell viability (% of 0 JMF4073), Figure 5b” value (T315I-Bcr-Abl-32D cells; shLacZ, JMF4073 2.5 mM (so in the source), single replicates) was 11.7008 and the “cell viability (% of 0 JMF4073), Figure 5b” value (T315I-Bcr-Abl-32D cells; shSHMT2, JMF4073 0.5 mM (so in the source), single replicates) was 67.1231. The “cell viability (% of 0 JMF4073), Figure 5b” value (T315I-Bcr-Abl-32D cells; shSHMT2, JMF4073 1.25 mM (so in the source), single replicates) was 37.9395, the “cell viability (% of 0 JMF4073), Figure 5b” value (T315I-Bcr-Abl-32D cells; shSHMT2, JMF4073 2.5 mM (so in the source), single replicates) was 11.3951 and the “viability (0 = 100)” value (T315I-Bcr-Abl-32D cells; T315I-Bcr-Abl, JMF4073 1 mM (so in the source), single replicates) was 70 and 66.4746. The “viability (0 = 100)” value (T315I-Bcr-Abl-32D cells; T315I-Bcr-Abl, JMF4073 2 mM (so in the source), single replicates) was 12 and 38 and 34.0126, the “viability (0 = 100)” value (T315I-Bcr-Abl-32D cells; T315I-Bcr-Abl, JMF4073 5 mM (so in the source), single replicates) was 19 and 10 and 9.067 and the “JMF4073 sensitivity with BSO co-treatment” value (T315I-Bcr-Abl-32D cells; T315I-Bcr-Abl-32D cells, BSO 12.5 μM) was “markedly increased”. The “JMF4073 sensitivity with UK-5099 treatment” value (T315I-Bcr-Abl-32D cells; T315I-Bcr-Abl-32D cells, UK-5099 25 μM) was “sensitized”, the “cell viability (Figure 7g)” value (KOPM28 cells; KOPM28, JMF 4073 1.25 μM) was 106.704 and 151.464 and the “cell viability (Figure 7g)” value (KOPM28 cells; KOPM28, JMF 4073 2.5 μM) was 112.966 and 158.237. For the same compound, the “cell viability (Figure 7g)” value (KOPM28 cells; KOPM28, JMF 4073 5 μM) was 142.547 and 122.577 and 85.9406, the “cell viability (Figure 7g)” value (KOPM28 cells; KOPM28, JMF 4073 10 μM) was 0 and -1.445 and 2.083 and the “sensitivity to combinatory treatment of JMF4073 and UK-5099” value (KOPM28 cells; KOPM28 cells) was “insensitive”. For the same compound, the JMF4073 sensitivity (KOPM28 cells; KOPM28 cells, 3 days, compared among K562, TCCS, KOPM28) was “insensitive” and the “JMF4073 sensitivity after erastin pretreatment” value (KOPM28 cells; KOPM28 cells, erastin 0.5 μM, 16 h) was “markedly increased”.
